{"source": "patent US20140206608A1", "about": "(priority 2012, published 2014)", "key": {"[1]": {"biological_target": "T1, human GIP receptor (hGIP R) (Homo sapiens, UniProt P48546)", "T1 construct": "expressed in transfected cells; host or cells: HEK-293", "T1 sequence (P48546 22-466)": "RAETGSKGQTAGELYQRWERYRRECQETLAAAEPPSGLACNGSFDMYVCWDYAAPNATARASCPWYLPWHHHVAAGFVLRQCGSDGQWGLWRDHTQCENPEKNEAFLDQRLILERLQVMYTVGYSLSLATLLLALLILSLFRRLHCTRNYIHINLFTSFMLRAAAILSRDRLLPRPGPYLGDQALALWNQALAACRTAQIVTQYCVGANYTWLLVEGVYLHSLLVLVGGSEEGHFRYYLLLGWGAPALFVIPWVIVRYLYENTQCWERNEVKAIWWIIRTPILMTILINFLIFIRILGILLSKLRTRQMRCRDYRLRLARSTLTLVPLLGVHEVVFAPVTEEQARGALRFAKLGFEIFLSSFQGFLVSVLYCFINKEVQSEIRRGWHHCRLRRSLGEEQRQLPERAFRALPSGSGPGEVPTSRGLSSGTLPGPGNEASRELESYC", "assay": "cAMP response of HEK-293 cells stably expressing human GIP receptor (HTRF)", "type": "cell-based", "procedure": "(§1) cAMP content of cells was determined using a kit from Cisbio Corp. (cat. no. 62AM4PEC) based on HTRF (Homogenous Time Resolved Fluorescence). For preparation, cells were split into T175 culture flasks and grown overnight to near confluency in medium (DMEM/10% FBS). Medium was then removed and cells washed with PBS lacking calcium and magnesium, followed by proteinase treatment with accutase (Sigma-Aldrich cat. no. A6964). Detached cells were washed and resuspended in assay buffer (1×HBSS; 20 mM HEPES, 0.1% BSA, 2 mM IBMX) and cellular density determined. They were then diluted to 400000 cells/ml and 25 μl-aliquots dispensed into the wells of 96-well plates. For measurement, 25 μl of test compound in assay buffer was added to the wells, followed by incubation for 30 minutes at room temperature."}, "[2]": {"biological_target": "T2, human GLP-1 receptor (hGLP-1 R) (Homo sapiens, UniProt P43220)", "T2 construct": "expressed in transfected cells; host or cells: HEK-293", "T2 sequence (P43220 24-463)": "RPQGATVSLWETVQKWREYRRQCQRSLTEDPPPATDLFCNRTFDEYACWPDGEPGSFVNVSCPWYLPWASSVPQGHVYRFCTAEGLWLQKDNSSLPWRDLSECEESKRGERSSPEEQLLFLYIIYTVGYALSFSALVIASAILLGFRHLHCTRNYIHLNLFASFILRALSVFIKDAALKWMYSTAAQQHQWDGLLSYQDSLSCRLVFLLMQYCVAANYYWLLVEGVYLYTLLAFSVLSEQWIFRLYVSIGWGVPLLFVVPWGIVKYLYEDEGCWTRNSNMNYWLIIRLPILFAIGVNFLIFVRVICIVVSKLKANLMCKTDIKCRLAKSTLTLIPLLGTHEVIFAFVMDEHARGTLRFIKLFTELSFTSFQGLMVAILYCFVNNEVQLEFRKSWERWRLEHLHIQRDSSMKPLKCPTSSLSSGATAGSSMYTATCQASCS", "assay": "cAMP response of HEK-293 cells stably expressing human GLP-1 receptor (HTRF)", "type": "cell-based", "conditions": "Table 7, cAMP formation", "procedure": "as §1"}, "[3]": {"biological_target": "T3, human glucagon receptor (hGLUC R) (Homo sapiens, UniProt P47871)", "T3 construct": "expressed in transfected cells; host or cells: HEK-293", "T3 sequence (P47871 26-477)": "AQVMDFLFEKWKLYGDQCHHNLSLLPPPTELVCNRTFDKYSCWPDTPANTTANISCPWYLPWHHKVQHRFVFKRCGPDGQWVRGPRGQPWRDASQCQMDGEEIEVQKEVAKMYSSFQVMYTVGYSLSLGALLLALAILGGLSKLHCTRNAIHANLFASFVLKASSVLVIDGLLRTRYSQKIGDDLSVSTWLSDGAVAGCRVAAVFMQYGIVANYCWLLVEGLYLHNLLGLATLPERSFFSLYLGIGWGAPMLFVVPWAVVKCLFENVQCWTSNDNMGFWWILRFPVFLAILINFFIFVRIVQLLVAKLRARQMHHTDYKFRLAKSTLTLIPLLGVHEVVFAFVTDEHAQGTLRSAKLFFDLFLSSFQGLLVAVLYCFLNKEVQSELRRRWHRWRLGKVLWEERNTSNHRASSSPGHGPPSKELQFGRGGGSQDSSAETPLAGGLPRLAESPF", "assay": "cAMP response of HEK-293 cells stably expressing human glucagon receptor (HTRF)", "type": "cell-based", "conditions": "Table 7, cAMP formation", "procedure": "as §1"}, "[4]": {"tested_on": "non-fasted female diabetic dbdb-mice", "assay": "Glucose lowering in non-fasted female diabetic dbdb-mice", "type": "in vivo", "conditions": "3 μg/kg s.c.", "description": "Female diabetic dbdb-mice of mean non-fasted glucose value of 20-22 mmol/l and a body weight of 42 g+/−0.6 g (SEM) were used. Mice were individually marked and were adapted to housing conditions for at least one week.\n3-5 days prior to study start mice were assigned to groups and cages (4 mice per cage, 8 per group) according to their non-fasted glucose values to ensure even distribution of lower and higher values between groups (stratification). On the study day, mice were weighed and dosed (t=0). Immediately prior to compound administration feed was removed while water remained available, and a first blood sample at a tail incision was drawn (baseline). Further blood samples were drawn at the tail incision at 30, 60, 90, 120, 240, 360, and 480 min.\nStatistical analyses are performed with Everstat Version 6.0 based on SAS by 2-way-ANOVA on repeated measures, followed by Dunnett's post-hoc test against vehicle-control. Differences are considered statistically significant at the p<0.05 level.\nFemale dbdb-mice, received 3 μg/kg of SEQ ID NO: 13 or phosphate buffered saline (vehicle control) subcutaneously, at time 0 min."}, "[5]": {"assay": "Solubility testing in buffer systems (HPLC-UV)", "type": "physicochemical", "conditions": "buffer system, target concentration 1.0 mg/mL"}, "[6]": {"assay": "Chemical stability in solution, 7 days at 25° C. (% remaining peptide)", "type": "physicochemical", "conditions": "% remaining peptide after 7 days at 25° C., pH 7.4", "description": "The chemical stability is expressed as “% remaining peptide”."}, "[7]": {"biological_target": "T4, human GIP receptor (human) (UniProt P48546)", "T4 sequence (looked up)": "T1 sequence (P48546 22-466)", "assay": "cell-based or functional assay"}, "[8]": {"biological_target": "human GLP-1 receptor (human) (UniProt P43220)", "sequence (P43220 24-463)": "as the sequence (P43220 24-463) above", "assay": "cell-based or functional assay"}}, "note": "pEC50: −log10 of the molar value. Read-outs that look alike come from different tables or passages of the source. *1 amine or outer side, *2 acyl side, *3 side chain or, on linkers, in order; H or OH if unused. Where a SMILES comes first, the peptide text is derived from it. Side-chain parts run from the residue outwards. [ ]: non-standard residue; d: D form. The star is where a group is joined. γGlu = O=C(O)[C@H](CCC(=O)[*:2])N[*:1]; Stearoyl = CCCCCCCCCCCCCCCCCC(=O)*; Aib = CC(C)(N)C(=O)O", "data": [{"compound": "CCCCCCCCCCCCCCCCCC(=O)N[C@@H](CCC(=O)NCCCC[C@H](NC(=O)[C@H](CCC(N)=O)NC(=O)[C@@H](NC(=O)[C@H](CO)NC(=O)[C@H](CC(C)C)NC(=O)[C@H](CC(=O)O)NC(=O)[C@H](CO)NC(=O)[C@@H](NC(=O)[C@H](Cc1ccccc1)NC(=O)[C@@H](NC(=O)CNC(=O)[C@H](CCC(=O)O)NC(=O)C(C)(C)NC(=O)[C@@H](N)Cc1ccc(O)cc1)[C@@H](C)O)[C@@H](C)O)[C@@H](C)CC)C(=O)N[C@@H](CCC(=O)O)C(=O)N[C@@H](CCC(=O)O)C(=O)N[C@@H](CCC(=O)O)C(=O)N[C@@H](C)C(=O)N[C@H](C(=O)N[C@@H](CCCNC(=N)N)C(=O)N[C@@H](CC(C)C)C(=O)N[C@@H](Cc1ccccc1)C(=O)N[C@H](C(=O)N[C@@H](CCC(=O)O)C(=O)N[C@@H](Cc1c[nH]c2ccccc12)C(=O)N[C@@H](CC(C)C)C(=O)N[C@@H](CCCCN)C(=O)NC(C)(C)C(=O)NCC(=O)NCC(=O)N1CCC[C@H]1C(=O)N[C@@H](CO)C(=O)N[C@@H](CO)C(=O)NCC(=O)N[C@@H](C)C(=O)N1CCC[C@H]1C(=O)N1CCC[C@H]1C(=O)N1CCC[C@H]1C(=O)N[C@@H](CO)C(N)=O)[C@@H](C)CC)C(C)C)C(=O)O", "note": "[SEQ ID NO: 9, Y-Aib-E-G-T-F-T-S-D-L-S-I-Q-K(γE-x70)-E-E-E-A-V-R-L-F-I-E-W-L-K-Aib-G-G-P-S-S-G-A-P-P-P-S-NH2]", "values": [{"measurement": "pEC50", "setting": "[1]", "value": 10.84}, {"measurement": "pEC50", "setting": "[2]; EC50 hGLP-1 R", "value": 10.57}, {"measurement": "pEC50", "setting": "[3]; EC50 hGLUC R", "value": 6.79}]}, {"compound": "CCCCCCCCCCCCCCCCCC(=O)N[C@@H](CCC(=O)NCCCC[C@H](NC(=O)[C@H](CCC(N)=O)NC(=O)[C@@H](NC(=O)[C@H](CO)NC(=O)[C@H](CC(C)C)NC(=O)[C@H](CC(=O)O)NC(=O)[C@H](CO)NC(=O)[C@@H](NC(=O)[C@H](Cc1ccccc1)NC(=O)[C@@H](NC(=O)CNC(=O)[C@H](CCC(=O)O)NC(=O)C(C)(C)NC(=O)[C@@H](N)Cc1ccc(O)cc1)[C@@H](C)O)[C@@H](C)O)[C@@H](C)CC)C(=O)N[C@@H](CCC(=O)O)C(=O)N[C@@H](CCCCN)C(=O)N[C@@H](CCC(=O)O)C(=O)N[C@@H](C)C(=O)N[C@H](C(=O)N[C@@H](CCCNC(=N)N)C(=O)N[C@@H](CC(C)C)C(=O)N[C@@H](Cc1ccccc1)C(=O)N[C@H](C(=O)N[C@@H](CCC(=O)O)C(=O)N[C@@H](Cc1c[nH]c2ccccc12)C(=O)N[C@@H](CC(C)C)C(=O)N[C@@H](CCCCN)C(=O)N[C@@H](C)C(=O)NCC(=O)NCC(=O)N1CCC[C@H]1C(=O)N[C@@H](CO)C(=O)N[C@@H](CO)C(=O)NCC(=O)N[C@@H](C)C(=O)N1CCC[C@H]1C(=O)N1CCC[C@H]1C(=O)N1CCC[C@H]1C(=O)N[C@@H](CO)C(N)=O)[C@@H](C)CC)C(C)C)C(=O)O", "note": "[SEQ ID NO: 13, Y-Aib-E-G-T-F-T-S-D-L-S-I-Q-K(γE-x70)-EKEAVRLFIEWLKAGGPSSGAPPPS-NH2] (H-Y[Aib]EGTFTSDLSIQK([γGlu-Stearoyl])EKEAVRLFIEWLKAGGPSSGAPPPS-NH2)", "values": [{"measurement": "maximal effect, glucose reduction", "setting": "[4]; at 240 min, kept to 480 min, baseline 20-22 mmol/l", "value": "~12", "unit": "mmol/L"}, {"measurement": "reduction of glucose compared to vehicle control", "setting": "[4]; from t=90 min until end of observation, p<0.05", "value": "statistical significant reduction of glucose"}, {"measurement": "pEC50", "setting": "[1]; Table 7, cAMP formation, read-out: EC50 hGIP R", "value": 10.77}, {"measurement": "solubility at 2 h", "setting": "[5]; pH 4.5, read-out: Solubility (pH 4.5)", "value": 688, "unit": "µg/mL"}, {"measurement": "solubility at 2 h", "setting": "[5]; pH 7.4, read-out: Solubility (pH 7.4)", "value": 824, "unit": "µg/mL"}, {"measurement": "pEC50", "setting": "[2]; read-out: EC50 hGLP-1 R", "value": 10.67}, {"measurement": "Stability (pH 7.4)", "setting": "[6]", "value": 84.0, "unit": "%"}, {"measurement": "pEC50", "setting": "[3]; read-out: EC50 hGLUC R", "value": 6.70}]}, {"compound": "Tyr(1)Ile(12)-exendin-4 (peptide)", "values": [{"measurement": "EC50 hGIP R [pM] (formed cAMP)", "setting": "[7]", "value": 93.9, "unit": "pM"}, {"measurement": "EC50 hGLP-1 R [pM] (formed cAMP)", "setting": "[8]", "value": 1.3, "unit": "pM"}]}]}
